Earlier results in US9078910B2, “Compositions comprising spicamycin derivatives and methods of use thereof” (DARA BioSciences, Inc., priority 2012, dated 2015).

System: neuropathic pain
Settings: Abdi et al. 2000, Kobierski et al. 2003

## CCCCCCCCC/C=C/C=C/C(=O)NCC(=O)N[C@@H]1[C@@H](O)[C@@H](O)[C@@H](Nc2ncnc3[nH]cnc23)O[C@H]1[C@@H](O)CO [KRN5500, 6-[4-deoxy-4-[(2E,4E)-tetradecadienoylglycyl]amino-L-glycero-β-L-mannoheptopyranosyl]amino-9H-purine]
  Efficacy in rat models of neuropathic pain: effective
